Source: article PMC11091243, “PD-L1 targeted peptide demonstrates potent antitumor and immunomodulatory activity in cancer immunotherapy” (Frontiers in Immunology, 2024)

Legend:
CD4+ T cells in MLR = test: Mixed lymphocyte reaction (DCs, CT26 tumor cells, CD4+ T cells); assay type: cell-based, mouse; settings: 20 μmol/L, versus control and control peptides, day 3, n = 3
Description: Fresh PBMCs were cultured in IMDM at 37°C for 2 hours and washed twice in PBS. Then cells were cultured in IMDM supplemented with 10% FBS, 25 ng/mL GM-CSF, and 50 ng/mL IL-4. Fresh medium was added every three days. TNF-α (50 ng/mL) was added on the sixth day to stimulate the maturation of dendritic cells (DCs) for 24 hours. The mature DCs were then frozen to be harvested later. Solid tumor tissues from the CT26 tumor-bearing animal have been removed and fragmented to collect tumor cells. In RPMI 1640 medium supplemented with 10% FBS, 2 mM L-glutamine, […] streptomycin, and 200 U/mL penicillin, these fragments were subjected to digestion with a combination of triple enzymes (collagenase, DNase, and hyaluronidase) for a maximum of 2 hours. The resultant cell suspension was then grown in complete RPMI 1640 medium at 37°C with 5% CO2 for 24 hours. The goal of this culture phase was to re-establish PD-L1 expression on the tumor cell surface since collagenase digestion may have destroyed it. DCs and tumor cells were both given a 2-hour treatment with mitomycin C (MMC) at a dosage of 100 μg/mL before the start of mixed lymphocyte responses (MLR). After thawing, the CD4+ T cells were cultured for overnight. […] Cell growth and IFN-γ levels in culture supernatants were measured on day 3.

Swiss mice = assay type: in vivo, mouse; settings: twice intraperitoneal 180 mg/kg (30 times effective amount), observed 14 days, data not shown
CT26 cells = test: CCK8 proliferation assay on CT26 cells; assay type: cell-based, mouse; settings: 0.1-1 mg/ml, 8 or 24 h, CCK8, n = 3
Description: To observe the impact of PPL-C on tumor cells and lymphocyte proliferation, the Counting Kit 8 (CCK8) reagent was employed. 20,000 cells/well were cultured in 96-well plates. Cells were treated for 8 or 24 hours with PPL-C (0.1, 0.25, 0.5, and 1 mg/ml) or not. Following the manufacturer guidelines, 10 µl of the CCK8 reagent (from Biotech Bioengineering, Cat: E606335) was applied to each well two hours before the incubation period ended. Using an ELISA plate reader from Molecular Devices (United States) the sample absorbance was calculated at 450 nm. To ensure repeatability, each experiment was replicated. By assessing absorbance at 450 nm, the CCK8 assay measures cell viability and proliferation.

PD-1/PD-L1 binding = molecular target: T1, PD-1/PD-L1 binding (Homo sapiens, UniProt Q9NZQ7); test: ELISA competition of peptides with PD-1 for binding to PD-L1; settings: n = 3, effect increases with peptide concentration
T1 construct: PD-1: 10377-H08H
Description: After seven phages were grown and purified, the solution was diluted 10 times to produce eight gradients. To ascertain the phage’s affinity for PD-L1, an ELISA test was run. Briefly, 96-well plates were filled with 150 µL of PD-L1 ([…]) in assay diluent (BioLegend, San Diego, CA), and incubated at 4°C overnight. 5% BSA in water was used to block the wells for two hours at 4°C. Following washing, 100 µL of phage diluent was added to each well, and they were shaken for two hours at room temperature. The wells were then treated with HRP-conjugated anti-M13 antibody at dose of 1:5000. With 100 µL of HRP substrate, the reaction was observed, and the OD410 was determined. By deducting the OD value of each phage binding to BSA-coated wells from the OD value of that phage binding to PD-L1, the specific binding of each phage to PD-L1 was computed. Three duplicate runs of this assay were made. GraphPad Prism 6 software was used to compute each phage binding affinity by nonlinear regression and convert it to a Scatchard plot. ELISA was used to evaluate the candidate peptides capacity to inhibit PD1/PD-L1 binding. The subsequent stages were the same as those previously outlined. Following incubation, OD410 was determined by goat anti-rabbit monoclonal antibody that had been HRP-labeled and rabbit anti-human PD-L1 protein monoclonal antibody.
To assess the effect of PPL-C peptide interference, PD-L1 binding to PD-1 was investigated using ELISA and cell-based analysis. For the ELISA, 100 μL of mouse PD-L1 in PBS was coated in each well of a 96-well plate and incubated the plate at 4°C overnight. On the second day, 1% BSA in PBST was used to block the plate. Each well was then filled with 200 nmol/L biotinylated PD-1 and FITC-labeled PPL-C peptides (at final concentrations of 40, 20, 10, 5, or 2.5 μmol/L) before 1.5 hours incubating at room temperature. After two PBST washes, the relative FITC fluorescence intensity was measured using a Cytation 3 instrument. […] After two PBST washes, the Cytation 3 device was used to detect PE fluorescence intensity. […] Samples were analyzed by flow cytometry.

T1 sequence (Q9NZQ7 19-239 limits assumed): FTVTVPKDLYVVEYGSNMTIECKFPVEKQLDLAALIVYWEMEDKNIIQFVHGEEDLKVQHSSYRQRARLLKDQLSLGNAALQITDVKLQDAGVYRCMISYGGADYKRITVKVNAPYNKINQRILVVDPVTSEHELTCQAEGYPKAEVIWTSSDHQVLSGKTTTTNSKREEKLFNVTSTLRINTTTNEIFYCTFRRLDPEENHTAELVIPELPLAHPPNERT

For `CC(C)[C@H](NC(=O)[C@H](CO)NC(=O)[C@@H](NC(=O)[C@@H](N)CO)C(C)C)C(=O)N[C@@H](CO)C(=O)N[C@@H](Cc1c[nH]cn1)C(=O)N[C@@H](Cc1ccccc1)C(=O)N[C@@H](CCC(N)=O)C(=O)N[C@@H](CCCCN)C(=O)N[C@H](C(=O)N[C@@H](Cc1c[nH]c2ccccc12)C(=O)N[C@H](C(=O)N[C@H](C(=O)NCC(=O)NCC(=O)NCC(=O)N[C@@H](CO)C(=O)N[C@@H](CCCCN)C(N)=O)C(C)C)C(C)C)C(C)C` [PPL-C], the “IFN-γ release in MLR” value (CD4+ T cells in MLR) was “significantly higher release”, the Acute toxicity (Swiss mice) was “no acute toxicity” and the “Growth of CT26 cells after peptide administration (direct cytotoxicity)” value (CT26 cells) was “grew normally”. The “Competition with PD-1 to bind PD-L1 (blocking of PD-L1/PD-1)” value (PD-1/PD-L1 binding) was “significant blocking effect”.
